Test results reported in PubChem BioAssay AID2060502 (Molecular Pharmacology Branch, DTP, NCI, 2025).

Tested on: 885724-159-R-J1-PDC complex spheroid viability
Assay: Anticancer human tumor 885724-159-R-J1-PDC patient-derived pancreatic adenocarcinoma cell line growth inhibition [GQUAD]
Details: for IC50: curve of first compound; for viability, T/C: stronger effect = lower value
Outline: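 Viability of tumor cells grown as complex spheroids with endothelial and stromal cells, exposed to drug combinations. Top concentration at or near clinical Cmax (else 10 microM), diluted in half-log increments.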

[1] = second compound 0.0316 µM, first compound 0.0316 µM
[2] = second compound 0.0316 µM, first compound 0.1 µM
[3] = second compound 0.0316 µM, first compound 0.316 µM
[4] = second compound 0.0316 µM, first compound 1 µM
[5] = second compound 0.0316 µM, first compound 3.16 µM
[6] = second compound 0.0316 µM, first compound 10 µM
[7] = second compound 0.1 µM, first compound 0.0316 µM
[8] = second compound 0.1 µM, first compound 0.1 µM
[9] = second compound 0.1 µM, first compound 0.316 µM
[10] = second compound 0.1 µM, first compound 1 µM
[11] = second compound 0.1 µM, first compound 3.16 µM
[12] = second compound 0.1 µM, first compound 10 µM
[13] = second compound 0.316 µM, first compound 0.0316 µM
[14] = second compound 0.316 µM, first compound 0.1 µM
[15] = second compound 0.316 µM, first compound 0.316 µM
[16] = second compound 0.316 µM, first compound 1 µM
[17] = second compound 0.316 µM, first compound 3.16 µM
[18] = second compound 0.316 µM, first compound 10 µM
[19] = second compound 1 µM, first compound 0.0316 µM
[20] = second compound 1 µM, first compound 0.1 µM
[21] = second compound 1 µM, first compound 0.316 µM
[22] = second compound 1 µM, first compound 1 µM
[23] = second compound 1 µM, first compound 3.16 µM
[24] = second compound 1 µM, first compound 10 µM
[25] = second compound 3.16 µM, first compound 0.0316 µM
[26] = second compound 3.16 µM, first compound 0.1 µM
[27] = second compound 3.16 µM, first compound 0.316 µM
[28] = second compound 3.16 µM, first compound 1 µM
[29] = second compound 3.16 µM, first compound 3.16 µM
[30] = second compound 3.16 µM, first compound 10 µM
[31] = second compound 10 µM, first compound 0.0316 µM
[32] = second compound 10 µM, first compound 0.1 µM
[33] = second compound 10 µM, first compound 0.316 µM
[34] = second compound 10 µM, first compound 1 µM
[35] = second compound 10 µM, first compound 3.16 µM
[36] = second compound 10 µM, first compound 10 µM
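Note: spheroids exposed to agents for seven days before readout.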
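Throughout, for viability, T/C: percent of vehicle control viability where 100% = DMSO wells.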

SMILES: CCCS(=O)(=O)Nc1ccc(F)c(C(=O)c2c[nH]c3ncc(-c4ccc(Cl)cc4)cc23)c1F + Cc1cnc(CNC(=O)c2c(=O)c3ccc(N4CCCN(C)CC4)nc3n3c2sc2ccccc23)cn1
- IC50 (second compound 0.0316 µM): > 10000 nM
- IC50 (second compound 0.1 µM): > 10000 nM
- IC50 (second compound 0.316 µM): > 10000 nM
- IC50 (second compound 1 µM): > 10000 nM
- IC50 (second compound 3.16 µM): > 10000 nM
- IC50 (second compound 10 µM): > 10000 nM
- viability, T/C [1]: 95%
- viability, T/C [2]: 106%
- viability, T/C [3]: 113%
- viability, T/C [4]: 141%
- viability, T/C [5]: 126%
- viability, T/C [6]: 74%
- viability, T/C [7]: 124%
- viability, T/C [8]: 128%
- viability, T/C [9]: 116%
- viability, T/C [10]: 135%
- viability, T/C [11]: 128%
- viability, T/C [12]: 83%
- viability, T/C [13]: 94%
- viability, T/C [14]: 103%
- viability, T/C [15]: 96.3%
- viability, T/C [16]: 98%
- viability, T/C [17]: 102%
- viability, T/C [18]: 72.2%
- viability, T/C [19]: 97.6%
- viability, T/C [20]: 84.6%
- viability, T/C [21]: 96%
- viability, T/C [22]: 96.7%
- viability, T/C [23]: 115%
- viability, T/C [24]: 70.6%
- viability, T/C [25]: 76.7%
- viability, T/C [26]: 75.2%
- viability, T/C [27]: 78.8%
- viability, T/C [28]: 80.3%
- viability, T/C [29]: 91.6%
- viability, T/C [30]: 58.7%
- viability, T/C [31]: 62.8%
- viability, T/C [32]: 71.2%
- viability, T/C [33]: 61.1%
- viability, T/C [34]: 73.4%
- viability, T/C [35]: 76%
- viability, T/C [36]: 50.2%

SMILES: Cc1[nH]c2ccccc2c1CCNCc1ccc(/C=C/C(=O)NO)cc1 + Cc1cnc(CNC(=O)c2c(=O)c3ccc(N4CCCN(C)CC4)nc3n3c2sc2ccccc23)cn1
- IC50 (second compound 0.0316 µM): 291 nM
- IC50 (second compound 0.1 µM): 241 nM
- IC50 (second compound 0.316 µM): 193 nM
- IC50 (second compound 1 µM): 137 nM
- IC50 (second compound 3.16 µM): 93.5 nM
- IC50 (second compound 10 µM): 23.8 nM
- viability, T/C (second compound 0.0316 µM, first compound 0.000999 µM): 111%
- viability, T/C (second compound 0.0316 µM, first compound 0.00316 µM): 103%
- viability, T/C (second compound 0.0316 µM, first compound 0.00999 µM): 89.7%
- viability, T/C [1]: 95.4%
- viability, T/C (second compound 0.0316 µM, first compound 0.0999 µM): 97.5%
- viability, T/C [3]: 46.4%
- viability, T/C (second compound 0.1 µM, first compound 0.000999 µM): 100%
- viability, T/C (second compound 0.1 µM, first compound 0.00316 µM): 114%
- viability, T/C (second compound 0.1 µM, first compound 0.00999 µM): 117%
- viability, T/C [7]: 98.8%
- viability, T/C (second compound 0.1 µM, first compound 0.0999 µM): 67.2%
- viability, T/C [9]: 44.7%
- viability, T/C (second compound 0.316 µM, first compound 0.000999 µM): 107%
- viability, T/C (second compound 0.316 µM, first compound 0.00316 µM): 103%
- viability, T/C (second compound 0.316 µM, first compound 0.00999 µM): 102%
- viability, T/C [13]: 83.1%
- viability, T/C (second compound 0.316 µM, first compound 0.0999 µM): 72.8%
- viability, T/C [15]: 34.5%
- viability, T/C (second compound 1 µM, first compound 0.000999 µM): 90%
- viability, T/C (second compound 1 µM, first compound 0.00316 µM): 78.6%
- viability, T/C (second compound 1 µM, first compound 0.00999 µM): 75.8%
- viability, T/C [19]: 71.5%
- viability, T/C (second compound 1 µM, first compound 0.0999 µM): 53.5%
- viability, T/C [21]: 37%
- viability, T/C (second compound 3.16 µM, first compound 0.000999 µM): 79.3%
- viability, T/C (second compound 3.16 µM, first compound 0.00316 µM): 72.5%
- viability, T/C (second compound 3.16 µM, first compound 0.00999 µM): 68%
- viability, T/C [25]: 63.6%
- viability, T/C (second compound 3.16 µM, first compound 0.0999 µM): 49.3%
- viability, T/C [27]: 30.6%
- viability, T/C (second compound 10 µM, first compound 0.000999 µM): 69.1%
- viability, T/C (second compound 10 µM, first compound 0.00316 µM): 73.7%
- viability, T/C (second compound 10 µM, first compound 0.00999 µM): 56.9%
- viability, T/C [31]: 46.1%
- viability, T/C (second compound 10 µM, first compound 0.0999 µM): 35.4%
- viability, T/C [33]: 23.8%

SMILES: O=C(NO)c1cnc(N2CCN(S(=O)(=O)c3ccc4ccccc4c3)CC2)nc1 + Cc1cnc(CNC(=O)c2c(=O)c3ccc(N4CCCN(C)CC4)nc3n3c2sc2ccccc23)cn1
- IC50 (second compound 0.0316 µM): 549 nM
- IC50 (second compound 0.1 µM): 450 nM
- IC50 (second compound 0.316 µM): 437 nM
- IC50 (second compound 1 µM): 434 nM
- IC50 (second compound 3.16 µM): 182 nM
- IC50 (second compound 10 µM): 183 nM
- viability, T/C [1]: 77.4%
- viability, T/C [2]: 83.3%
- viability, T/C [3]: 65.4%
- viability, T/C [4]: 31.2%
- viability, T/C [5]: 13.7%
- viability, T/C [6]: 0.25%
- viability, T/C [7]: 117%
- viability, T/C [8]: 79.7%
- viability, T/C [9]: 56.6%
- viability, T/C [10]: 40%
- viability, T/C [11]: 10.4%
- viability, T/C [12]: 0.28%
- viability, T/C [13]: 102%
- viability, T/C [14]: 78.9%
- viability, T/C [15]: 63.3%
- viability, T/C [16]: 26.1%
- viability, T/C [17]: 12.7%
- viability, T/C [18]: 0.32%
- viability, T/C [19]: 80.5%
- viability, T/C [20]: 70.4%
- viability, T/C [21]: 60%
- viability, T/C [22]: 28.4%
- viability, T/C [23]: 9.39%
- viability, T/C [24]: 0.18%
- viability, T/C [25]: 80.6%
- viability, T/C [26]: 59.6%
- viability, T/C [27]: 39.8%
- viability, T/C [28]: 23.7%
- viability, T/C [29]: 0.23%
- viability, T/C [30]: 0.18%
- viability, T/C [31]: 60.2%
- viability, T/C [32]: 58.5%
- viability, T/C [33]: 42%
- viability, T/C [34]: 20.5%
- viability, T/C [35]: 0.26%
- viability, T/C [36]: 0.22%
